“And” between values parts separate entries of the source, which are not always exact repeats. Equal values may be shown once. Inconclusive results and toxic doses are left out. Rule as the data show it: active = T/C of 150% or more; inactive = T/C below 125%.
Test system: L1210 leukemia ip in BDF1 mice, survival T/C
Test: NCI In Vivo Anticancer Drug Screen. Data for tumor model L1210 Leukemia (intraperitoneal) in B6D2F1 (BDF1) mice
Conditions: endpoint: mean survival time, higher = longer survival
In short: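 Ratio derived from survival: compound-dosed mice over vehicle-dosed mice, all bearing a transplantable tumor.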

[1] = dose: 100.0 mg/kg/injection, schedule: Q01DX001 (ip), vehicle: saline
[2] = dose: 200.0 mg/kg/injection, schedule: Q01DX001 (ip), vehicle: saline
[3] = dose: 400.0 mg/kg/injection, schedule: Q01DX001 (ip), vehicle: saline
[4] = dose: 100.0 mg/kg/injection, schedule: Q01DX009 (ip), vehicle: Klucel (hydroxypropylcellulose) (HPC)
[5] = dose: 100.0 mg/kg/injection, schedule: Q04DX003 (ip), vehicle: Klucel (hydroxypropylcellulose) (HPC)
[6] = dose: 200.0 mg/kg/injection, schedule: Q01DX009 (ip), vehicle: Klucel (hydroxypropylcellulose) (HPC)
[7] = dose: 200.0 mg/kg/injection, schedule: Q04DX003 (ip), vehicle: Klucel (hydroxypropylcellulose) (HPC)
[8] = dose: 400.0 mg/kg/injection, schedule: Q01DX009 (ip), vehicle: Klucel (hydroxypropylcellulose) (HPC)
[9] = dose: 400.0 mg/kg/injection, schedule: Q04DX003 (ip), vehicle: Klucel (hydroxypropylcellulose) (HPC)
[10] = dose: 100.0 mg/kg/injection, schedule: Q01DX001 (ip), vehicle: carboxymethylcellulose (CMC)
[11] = dose: 200.0 mg/kg/injection, schedule: Q01DX001 (ip), vehicle: carboxymethylcellulose (CMC)
[12] = dose: 100.0 mg/kg/injection, schedule: Q01DX009 (ip), vehicle: saline
[13] = dose: 100.0 mg/kg/injection, schedule: Q01DX001 (ip), vehicle: other
[14] = dose: 200.0 mg/kg/injection, schedule: Q01DX001 (ip), vehicle: other
[15] = dose: 400.0 mg/kg/injection, schedule: Q01DX001 (ip), vehicle: other

Measured: T/C

Cc1cccc[n+]1CC(=O)c1ccc(-c2ccc(C(=O)C[n+]3ccccc3)cc2)cc1
inactive: dose: 0.04 mg/kg/injection, schedule: Q04DX003 (ip), vehicle: saline 102 % of control | dose: 0.08 mg/kg/injection, schedule: Q04DX003 (ip), vehicle: saline 104 % of control | dose: 0.15 mg/kg/injection, schedule: Q04DX003 (ip), vehicle: saline 97 % of control

O=S(=O)(O)c1ccc(CCCCCCCl)cc1
inactive: dose: 100.0 mg/kg/injection, schedule: Q04DX002 (ip), vehicle: saline 93 % of control | dose: 200.0 mg/kg/injection, schedule: Q04DX002 (ip), vehicle: saline 87 % of control

NC(=O)NC12CC3CC(CC(C3)C1)C2
inactive: [1] 89 % of control | [2] 89 % of control | [3] 101 % of control

CCCCCCCC(=O)CC(C)C
inactive: [4] 109 % of control | [5] 93 % of control | [6] 98 % of control | [7] 96 % of control | [8] 107 % of control | [9] 96 % of control

NC(C(=O)O)C1SCCS1 (stereo not drawn)
inactive: [10] 102 % of control | [11] 102 % of control | dose: 400.0 mg/kg/injection, schedule: Q01DX001 (ip), vehicle: carboxymethylcellulose (CMC) 98 % of control

O=C(COc1ccc(Cl)cc1Cl)Nc1ccc(Br)cc1
inactive: dose: 100.0 mg/kg/injection, schedule: Q04DX002 (ip), vehicle: gum acacia 103 % of control | dose: 200.0 mg/kg/injection, schedule: Q04DX002 (ip), vehicle: gum acacia 92 % of control | dose: 400.0 mg/kg/injection, schedule: Q04DX002 (ip), vehicle: gum acacia 89 % of control

Oc1ccc(/C=N/Nc2nnc(N/N=C/c3ccc(O)cc3O)c3ccccc23)c(O)c1
inactive: dose: 2.5 mg/kg/injection, schedule: Q01DX015 (ip), vehicle: carboxymethylcellulose (CMC) 97 % of control | dose: 5.0 mg/kg/injection, schedule: Q01DX009 (ip), vehicle: saline 104 % of control | dose: 5.0 mg/kg/injection, schedule: Q01DX015 (ip), vehicle: carboxymethylcellulose (CMC) 98 % of control | dose: 10.0 mg/kg/injection, schedule: Q01DX009 (ip), vehicle: saline 109 % of control | dose: 10.0 mg/kg/injection, schedule: Q01DX015 (ip), vehicle: carboxymethylcellulose (CMC) 110 % of control | dose: 19.0 mg/kg/injection, schedule: Q01DX015 (ip), vehicle: carboxymethylcellulose (CMC) 120 % of control | dose: 20.0 mg/kg/injection, schedule: Q01DX009 (ip), vehicle: saline 106 % of control | dose: 32.0 mg/kg/injection, schedule: Q01DX015 (ip), vehicle: carboxymethylcellulose (CMC) 114 % of control | dose: 50.0 mg/kg/injection, schedule: Q01DX001 (ip), vehicle: saline 98 % of control | [10] 111 % of control | [1] 97 % of control | [11] 121 % of control | [2] 106 % of control | dose: 600.0 mg/kg/injection, schedule: Q01DX001 (ip), vehicle: carboxymethylcellulose (CMC) 117 % of control

C#CC(C)(C)CC
inactive: [12] 111 % of control | dose: 200.0 mg/kg/injection, schedule: Q01DX009 (ip), vehicle: saline 97 % of control | dose: 400.0 mg/kg/injection, schedule: Q01DX009 (ip), vehicle: saline 122 % of control

CN(C=O)COCN(C)C=O
inactive: [13] 98 % of control | dose: 100.0 mg/kg/injection, schedule: Q04DX003 (ip), vehicle: other 98 % of control | [14] 97 % of control | dose: 200.0 mg/kg/injection, schedule: Q04DX003 (ip), vehicle: other 102 % of control | [15] 97 % of control | dose: 400.0 mg/kg/injection, schedule: Q04DX003 (ip), vehicle: other 104 % of control

O=C(/C=C\c1ccc(O)cc1)c1ccccc1
inactive: [4] 97 % of control | [5] 89 % of control | [6] 106 % of control | [7] 96 % of control | [8] 101 % of control

O=[N+]([O-])c1cccc2nc(N/N=C/c3ccccc3O)ccc12
inactive: dose: 25.0 mg/kg/injection, schedule: Q01DX009 (ip), vehicle: water 89 % of control | dose: 50.0 mg/kg/injection, schedule: Q01DX009 (ip), vehicle: water 94 % of control | dose: 200.0 mg/kg/injection, schedule: Q01DX009 (ip), vehicle: water 94 % of control | dose: 400.0 mg/kg/injection, schedule: Q01DX009 (ip), vehicle: water 93 % of control

CC(=O)c1ccc2c(c1)sc1ccccc12
inactive: dose: 50.0 mg/kg/injection, schedule: Q01DX001 (ip), vehicle: other 96 % of control | [13] 96 % of control | [14] 96 % of control | [15] 87 % of control

Nc1ccc(CCCCc2ccccc2)cc1Cl
inactive: dose: 100.0 mg/kg/injection, schedule: Q04DX003 (ip), vehicle: saline with Tween-80 100 % of control | dose: 200.0 mg/kg/injection, schedule: Q04DX003 (ip), vehicle: saline with Tween-80 100 % of control

NC(CO)CSCc1ccccc1 (stereo not drawn)
inactive: dose: 6.25 mg/kg/injection, schedule: Q01DX009 (ip), vehicle: saline 105 % of control | dose: 12.5 mg/kg/injection, schedule: Q01DX009 (ip), vehicle: saline 100 % of control | dose: 25.0 mg/kg/injection, schedule: Q01DX009 (ip), vehicle: saline 110 % of control and 113 % of control | dose: 50.0 mg/kg/injection, schedule: Q01DX009 (ip), vehicle: saline 100 % of control and 102 % of control | [12] 104 % of control

O=C(c1ccccc1)C1C(c2ccccc2)N1CCl (stereo not drawn)
inactive: [4] 98 % of control | [5] 92 % of control | [6] 94 % of control | [7] 105 % of control | [8] 100 % of control | [9] 107 % of control

CC(C)(C)Sc1cc(C#N)ccn1
inactive: dose: 50.0 mg/kg/injection, schedule: Q04DX003 (ip), vehicle: other 100 % of control and 92 % of control | dose: 100.0 mg/kg/injection, schedule: Q04DX002 (ip), vehicle: other 103 % of control and 109 % of control | dose: 200.0 mg/kg/injection, schedule: Q04DX002 (ip), vehicle: other 98 % of control and 102 % of control | dose: 400.0 mg/kg/injection, schedule: Q04DX002 (ip), vehicle: other 103 % of control and 106 % of control

O=C1C(c2ccc(O)cc2)C2C=CC(C2)N1O (stereo not drawn)
inactive: [1] 95 % of control | [2] 103 % of control | [3] 95 % of control

O=C(O)C(O)c1cccc(Cl)c1 (stereo not drawn)
inactive: dose: 75.0 mg/kg/injection, schedule: Q01DX001 (ip), vehicle: acetone 94 % of control | dose: 150.0 mg/kg/injection, schedule: Q01DX001 (ip), vehicle: acetone 94 % of control
